These results are taken from ChEMBL document CHEMBL3046014, “Quinolone derivatives as antitubercular drugs” (Med Chem Res, 2013).

Values after ≈ are worked out from the molar mass of the structure shown.

Usually MIC50 stands for the lowest concentration that inhibits either 50% of growth or 50% of the strains tested, depending on the study. In general, IC50 refers to the concentration that inhibits the measured activity by half. As usually defined, the MIC is the lowest concentration that inhibits growth of the organism. As a reminder, the MIC90 is an inhibitory concentration at the 90% level, which refers to growth in some studies and to a panel of isolates in others. One may read the bioavailability as dose-corrected exposure relative to a reference, in per cent.

In one data set the test system is Mycobacterium avium. The data set can be described thus: Antitubercular activity against Mycobacterium avium by MAC assay. Format: functional.
Data set [1] relates to Mycobacterium tuberculosis. The data set can be described thus: Antitubercular activity against Mycobacterium tuberculosis. In kind it is functional, organism-based.
The test system of data set [2] is Mycobacterium tuberculosis. The data set can be described thus: Antitubercular activity against Mycobacterium tuberculosis H37Rv. Format: functional.
A further data set is filed under the species Homo sapiens. Put plainly: Toxicity in healthy Homo sapiens (human). In kind it is organism-based. Particulars: in vivo.
Data set [3] can be described thus: Oral bioavailability in healthy Homo sapiens (human). Format: ADME, organism-based. The note with it: in vivo.
Data set [4] is described as follows: Elimination half life in healthy Homo sapiens (human). Format: ADME, organism-based. The note with it: in vivo, read-out: beta t1/2 (converted).
Data set [5] in a line: Drug uptake in Mus musculus (mouse) serum at 100 mg/kg, po at 0.25 hr. Format: ADME, organism-based. On the set-up: dose 100 mg/kg, route oral. Particulars: read-out: Drug uptake.
Data set [6] relates to Mycobacterium tuberculosis. Put plainly: Antitubercular activity against Mycobacterium tuberculosis CSU93.

In the data set with Mycobacterium avium, `OC(C1=CCC=CN1)c1cc(C2C3CC4CC(C3)CC2C4)nc2c1ccc1ccccc12` (stereo not drawn) returned an MIC50 of 2 µg/mL (≈ 4.73 µM).

In data set [1], `C[C@H]1CN(c2c(F)cc3c(=O)c(C(=O)O)cn(C4CC4)c3c2OC(F)(F)F)CCN1.Cl` had an IC50 of 0.25 µg/mL.

Molecule `OC(C1=CCC=CN1)c1cc(-c2ccc(Cl)cc2)nc2c1ccc1ccccc12` (stereo not drawn) had an MIC50 in the data set on Mycobacterium avium of 1 µg/mL (≈ 2.51 µM).

In turn, `CC1COc2c(N3CCN(C)CC3)c(F)cc3c(=O)c(C(=O)O)cn1c23` (racemic) [OFLOXACIN] returned an IC50 in data set [1] of 0.5 µg/mL (≈ 1.38 µM).

Molecule `CNC1CCCN(c2c(F)cc3c(=O)c(C(=O)O)cn(C4CC4)c3c2OC)C1` (stereo not drawn) [BALOFLOXACIN] came in with an IC50 in data set [1] of 0.5 µg/mL (≈ 1.28 µM).

Molecule `COc1nc2ccc(Br)cc2cc1[C@@H](c1ccccc1)[C@@](O)(CCN(C)C)c1cccc2ccccc12` [BEDAQUILINE] registered an MIC in data set [2] below 0.5 µg/mL.

Turning to `O=C(O)c1cn(C2CC2)c2cc(N3CCNCC3)c(F)cc2c1=O` [CIPROFLOXACIN], half-maximal inhibition in data set [1] (IC50) required 0.5 µg/mL (≈ 1.51 µM).

Take `C[C@H]1NCc2cc(-c3ccc4c(=O)c(C(=O)O)cn(C5CC5)c4c3OC(F)F)ccc21` [GARENOXACIN]: the MIC90 in data set [1] was 0.0625 µg/mL (≈ 0.147 µM).

`CO/N=C1\CN(c2nc3c(cc2F)c(=O)c(C(=O)O)cn3C2CC2)CC1CN` (stereo not drawn) [GEMIFLOXACIN] displayed an MIC90 in data set [1] of 8 µg/mL (≈ 20.5 µM). In the data set filed under Homo sapiens, the MNTD is recorded as 800 mg. This molecule displayed a bioavailability in data set [3] of 70%. In addition, the half-life in data set [4] was 7.4 h.

Molecule `Cc1c(F)c(N2CCNC(C)C2)cc2c1c(=O)c(C(=O)O)cn2C1CC1` (stereo not drawn) [GREPAFLOXACIN] registered an MIC90 in data set [1] of 1 µg/mL (≈ 2.78 µM).

For `C[C@H]1COc2c(N3CCN(C)CC3)c(F)cc3c(=O)c(C(=O)O)cn1c23.C[C@H]1COc2c(N3CCN(C)CC3)c(F)cc3c(=O)c(C(=O)O)cn1c23.O` [LEVOFLOXACIN], the MIC90 in data set [1] was 1 µg/mL.

Regarding `OC(c1cc(C(F)(F)F)nc2c(C(F)(F)F)cccc12)C1CCCCN1` (stereo not drawn) [MEFLOQUINE], the MIC50 against Mycobacterium avium was 16 µg/mL (≈ 42.3 µM).

For `COc1c(N2C[C@@H]3CCCN[C@@H]3C2)c(F)cc2c(=O)c(C(=O)O)cn(C3CC3)c12` [MOXIFLOXACIN], in data set [5], the concentration at 0.25 h was found to be 7800 ng/mL. In data set [6], this molecule returned an MIC of 0.25 µg/mL (≈ 0.623 µM).

In data set [1], `CCn1cc(C(=O)O)c(=O)c2cc(F)c(N3CCNCC3)cc21` [NORFLOXACIN] returned a half-maximal inhibitory concentration (IC50) of 8 µg/mL (≈ 25.1 µM).

Regarding `N[C@@H]1CN(c2c(F)cc3c(=O)c(C(=O)O)cn([C@@H]4C[C@@H]4F)c3c2Cl)CC12CC2` [SITAFLOXACIN ANHYDROUS], the MIC90 in data set [1] is 0.2 µg/mL (≈ 0.488 µM). The molecule further yielded a bioavailability in data set [3] of at least 70%. The half-life in data set [4] was 4.4 h.

As for `C[C@@H]1CN(c2c(F)c(N)c3c(=O)c(C(=O)O)cn(C4CC4)c3c2F)C[C@H](C)N1` [SPARFLOXACIN], the IC50 in data set [1] was 0.25 µg/mL (≈ 0.637 µM).

Consider `N[C@@H]1[C@H]2CN(c3nc4c(cc3F)c(=O)c(C(=O)O)cn4-c3ccc(F)cc3F)C[C@@H]12` [TROVAFLOXACIN], for which the MIC90 in data set [1] was 1 µg/mL (≈ 2.4 µM).
